Values quoted from earlier work in patent publication US11883453B2, “Formulation based on medicinal plant, or part or extract thereof, use of the formulation and product including said formulation” (priority 2018, dated 2024).

Key:
[1] = test system: 3T3 fibroblast strains; conditions: Scratch Assay, 3T3 fibroblasts, compared to Calendula extract
[2] = rate proportional to concentration
[3] = disk-diffusion
[4] = test system: 3T3 fibroblast strains; conditions: MTT, 3T3 fibroblasts

Structure (SMILES)	Effect on in vitro healing [1]	Elimination of free radicals [2]	Antimicrobial activity (inhibition halos in agar) [3]	Cytotoxicity [4]
CCCCCCCCCCCCCC(=O)OC1CCC2(C)C(CCC3(C)C2CCC2C4C(C)C(C)=CCC4(C)C(O)CC23C)C1(C)C (centres unmarked) [faradiol myristate]	partial role in the healing process compared to the extract			
CCCCCCCCCCCCCCCC(=O)OC1CCC2(C)C(CCC3(C)C2CCC2C4C(C)C(C)=CCC4(C)C(O)CC23C)C1(C)C (centres unmarked) [faradiol palmitate]	partial role in the healing process compared to the extract			
C=C(C)[C@@H]1CC[C@]2(C)CC[C@]3(C)[C@H](CC[C@@H]4[C@@]5(C)CC[C@H](O)C(C)(C)[C@@H]5CC[C@]43C)[C@@H]12 [Lupeol]		excellent properties to eliminate free radicals	confirmed the antimicrobial activity	no toxicity found
